According to patent publication US8362000B2, “Azetidinyl diamides as monoacylglycerol lipase inhibitors” (Janssen Pharmaceutica NV, priority 2009, dated 2013):
Where two headings read alike, the source gives them in different places.

What was measured:
MGL = biological target: T1, MGL (Rattus norvegicus, UniProt Q8R431); test: 2-AG accumulation assay in rat brain homogenate; format: biochemical; settings: rat brain homogenate, 2-AG accumulation as percent of vehicle; for 2-AG accumulation, % of vehicle control at 1 µM: read-out: Rat Brain 2AG % VehCntrl (%) @ 1 μM; for 2-AG accumulation, % of vehicle control at 10 µM: compound 10 μM, read-out: Rat Brain 2AG % VehCntrl (%) @ 10 μM
T1 construct: one g rat brain was homogenized using a Polytron homogenizer; from tissue; host or cells: rat brain homogenate
T1 sequence (Q8R431 1-303): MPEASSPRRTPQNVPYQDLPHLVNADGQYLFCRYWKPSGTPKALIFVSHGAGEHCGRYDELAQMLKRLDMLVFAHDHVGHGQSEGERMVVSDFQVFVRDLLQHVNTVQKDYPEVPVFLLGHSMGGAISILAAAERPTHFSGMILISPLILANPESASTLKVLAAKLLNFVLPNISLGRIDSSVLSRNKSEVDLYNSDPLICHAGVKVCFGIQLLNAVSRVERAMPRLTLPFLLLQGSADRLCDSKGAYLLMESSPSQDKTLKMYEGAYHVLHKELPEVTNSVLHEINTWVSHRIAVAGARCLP

mutant MGL = biological target: T2, mutant MGL (Homo sapiens, UniProt Q99685, L169S/L176S); test: MGL ThermoFluor assay - mutant; format: binding; settings: read-out: MGL mutant ThermoFluor Kd
T2 sequence (Q99685 1-303 L169S/L176S): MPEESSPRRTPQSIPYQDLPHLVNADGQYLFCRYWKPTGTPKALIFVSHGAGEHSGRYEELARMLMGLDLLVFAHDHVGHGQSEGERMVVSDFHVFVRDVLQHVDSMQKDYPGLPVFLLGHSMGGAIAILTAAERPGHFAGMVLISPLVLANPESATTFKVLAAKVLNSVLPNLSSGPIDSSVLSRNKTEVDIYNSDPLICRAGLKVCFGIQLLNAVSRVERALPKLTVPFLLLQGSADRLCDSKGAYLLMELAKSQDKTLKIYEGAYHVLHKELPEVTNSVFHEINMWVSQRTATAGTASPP

[1] = ThermoFluor concentration-response

| SMILES | 2-AG accumulation, % of vehicle control at 1 µM (MGL; compound 1 μM) [%] | Kd (mutant MGL; [1]) [nM] | 2-AG accumulation, % of vehicle control at 10 µM (MGL) [%] | also measured |
| --- | --- | --- | --- | --- |
| O=C(c1nccs1)N1CCN(C2CN(C(=O)[C@@H]3C[C@H]3c3ccccc3Cl)C2)CC1 (racemic) [Cpd 642] | 170 | 499 |  |  |
| O=C(c1ccc(C2CCCCC2)cc1)N1CC(N2CCN(C(=O)c3ccco3)CC2)C1 [Cpd 2, 1-{1-[(4-Cyclohexylphenyl)carbonyl]azetidin-3-yl}-4-(furan-2-ylcarbonyl)piperazine] |  | 0.49 | 911 |  |
| O=C(c1ccc(-c2ccccc2)cc1)N1CC(N2CCN(C(=O)c3ccco3)CC2)C1 [Cpd 6, 1-[1-(Biphenyl-4-ylcarbonyl)azetidin-3-yl]-4-(furan-2-ylcarbonyl)piperazine] | 554 | 3.6 | 623 | 2-AG accumulation, % of vehicle control at 0.01 µM (MGL; compound 0.01 μM, read-out: Rat Brain 2AG % VehCntrl (%) @ 0.01 μM): 75%; 2-AG accumulation, % of vehicle control at 0.1 µM (MGL; compound 0.1 μM, read-out: Rat Brain 2AG % VehCntrl (%) @ 0.1 μM): 238% |
| O=C(c1ccc(-c2ccccc2)cc1)N1CC(N2CCN(C(=O)c3ccc(Br)o3)CC2)C1 [Cpd 12, 1-[1-(Biphenyl-4-ylcarbonyl)azetidin-3-yl]-4-[(5-bromofuran-2-yl)carbonyl]piperazine] |  | 14.3 | 448 |  |
| CN(c1ccccc1)c1ccc(C(=O)N2CC(N3CCN(C(=O)c4ccccc4)CC3)C2)cc1 [Cpd 40, N-Methyl-N-phenyl-4-({3-[4-(phenylcarbonyl)piperazin-1-yl]azetidin-1-yl}carbonyl)aniline] |  | 24.2 | 490 |  |
| O=C(c1ccccc1)N1CCN(C2CN(C(=O)c3ccc(N4CCCCCC4)cc3)C2)CC1 [Cpd 41, 1-[4-({3-[4-(Phenylcarbonyl)piperazin-1-yl]azetidin-1-yl}carbonyl)phenyl]azepane] |  | 4 | 544 |  |
| O=C(c1ccc(Cc2ccccc2)cc1)N1CCN(C2CN(C(=O)c3ccccc3)C2)CC1 [Cpd 61, 1-[(4-Benzylphenyl)carbonyl]-4-[1-(phenylcarbonyl)azetidin-3-yl]piperazine] |  | 29 | 604 |  |
| O=C(c1ccccc1)N1CCN(C2CN(C(=O)c3ccc(-c4cccc(Cl)c4)cc3)C2)CC1 [Cpd 77, 1-{1-[(3′-Chlorobiphenyl-4-yl)carbonyl]azetidin-3-yl}-4-(phenylcarbonyl)piperazine] |  | 9.09 | 231 |  |
| O=C(c1ccccc1)N1CCN(C2CN(C(=O)c3ccc(-c4ccc(Br)cc4)cc3)C2)CC1 [Cpd 83, 1-{1-[(4′-Bromobiphenyl-4-yl)carbonyl]azetidin-3-yl}-4-(phenylcarbonyl)piperazine] | 105 | 111 |  |  |
| O=C(c1ccccc1)N1CCN(C2CN(C(=O)c3ccc4c(ccn4-c4cccc(C(F)(F)F)c4)c3)C2)CC1 [Cpd 129, 1-[3-(Trifluoromethyl)phenyl]-5-({3-[4-(phenyl-carbonyl)piperazin-1-yl]azetidin-1-yl}carbonyl)-1H-indole] | 499 |  |  | Kd (mutant MGL; ThermoFluor thermal stability binding assay): 10 nM |
| O=C(c1ccc(-c2ccc(Cl)cc2)cc1)N1CC(N2CCN(C(=O)c3nccs3)CC2)C1 [Cpd 163, 1-{1-[(4′-Chlorobiphenyl-4-yl)carbonyl]azetidin-3-yl}-4-(1,3-thiazol-2-ylcarbonyl)piperazine] |  | 3.45 | 923 |  |
| O=C(c1ccc(-c2cc(Cl)cc(Cl)c2)cc1)N1CC(N2CCN(C(=O)c3nccs3)CC2)C1 [Cpd 164, 1-{1-[(3′,5′-Dichlorobiphenyl-4-yl)carbonyl]azetidin-3-yl}-4-(1,3-thiazol-2-ylcarbonyl)piperazine] |  | 1.11 | 969 |  |
| O=C(c1ccccc1)N1CCN(C2CN(C(=O)c3ccc4c(c3)CCN(C(=O)C3CCCCC3)C4)C2)CC1 [Cpd 350, 2-(Cyclohexylcarbonyl)-6-({3-[4-(phenylcarbonyl)piperazin-1-yl]azetidin-1-yl}carbonyl)-1,2,3,4-tetrahydroisoquinoline] |  |  | 498 |  |
| O=C(c1ccc2c(c1)CCCN2C(=O)c1ccc(C(F)(F)F)cc1)N1CC(N2CCN(C(=O)c3nccs3)CC2)C1 [Cpd 365, 6-({3-[4-(1,3-Thiazol-2-ylcarbonyl)piperazin-1-yl]azetidin-1-yl}carbonyl)-1-(4-trifluoromethylbenzoyl)-1,2,3,4-tetrahydroquinoline] | 971 |  |  |  |
| O=C(c1ccccc1)N1CCN(C2CN(C(=O)c3ccc(OCc4ccc5ccccc5c4)cc3)C2)CC1 [Cpd 380, 1-(1-{[4-(Naphthalen-2-ylmethoxy)phenyl]carbonyl}azetidin-3-yl)-4-(phenylcarbonyl)piperazine] |  |  | 773 |  |
| O=C(c1ccc(Sc2cccc(C(F)(F)F)c2)cc1)N1CC(N2CCN(C(=O)c3nccs3)CC2)C1 [Cpd 431] | 703 |  |  |  |

| SMILES | 2-AG accumulation, % of vehicle control at 1 µM (MGL; compound 1 μM) [%] | Kd (mutant MGL; [1]) [nM] | 2-AG accumulation, % of vehicle control at 10 µM (MGL) [%] | also measured |
| --- | --- | --- | --- | --- |
| O=C(c1ccccc1)N1CCN(C2CN(C(=O)c3ccc(S(=O)(=O)c4cccc(Cl)c4)cc3)C2)CC1 [Cpd 433, 1-[1-({4-[(3-Chlorophenyl)sulfonyl]phenyl}carbonyl)azetidin-3-yl]-4-(phenylcarbonyl)piperazine] | 159 |  |  |  |
| CC(C)(C)OC(=O)N1CC[C@H](Oc2ccc(C(=O)N3CC(N4CCN(C(=O)c5ccccc5)CC4)C3)cc2)C1 [Cpd 434, tert-Butyl (3S)-3-[4-({3-[4-(phenylcarbonyl)piperazin-1-yl]azetidin-1-yl}carbonyl)phenoxy]pyrrolidine-1-carboxylate] |  |  | 737 |  |
| O=C(c1ccccc1)N1CCN(C2CN(C(=O)c3ccc(OC4CCCCC4)cc3)C2)CC1 [Cpd 435, 1-(1-{[4-(Cyclohexyloxy)phenyl]carbonyl}azetidin-3-yl)-4-(phenylcarbonyl)piperazine] |  |  | 198 |  |
| O=C(c1ccccc1)N1CCN(C2CN(C(=O)c3ccc4c(ccn4-c4ccc(F)cc4F)c3)C2)CC1 [Cpd 579, 1-(2,4-Difluorophenyl)-5-({3-[4-(phenylcarbonyl)piperazin-1-yl]azetidin-1-yl}carbonyl)-1H-indole] | 265 |  |  |  |
| O=C(c1ccccc1)N1CCN(C2CN(C(=O)c3ccc(-c4ccc(C(F)(F)F)s4)cc3)C2)CC1 [Cpd 581, 1-(Phenylcarbonyl)-4-[1-({4-[5-(trifluoromethyl)thiophen-2-yl]phenyl}carbonyl)azetidin-3-yl]piperazine] | 140 |  |  |  |
| O=C(c1ccccc1)N1CCN(C2CN(C(=O)c3ccc4c(ccn4-c4ncccn4)c3)C2)CC1 [Cpd 595, 5-({3-[4-(Phenylcarbonyl)piperazin-1-yl]azetidin-1-yl}carbonyl)-1-pyrimidin-2-yl-1H-indole] | 128 |  |  |  |
| Cc1c(C(=O)N2CC(N3CCN(C(=O)c4ccns4)CC3)C2)sc2cc(C(F)(F)F)ccc12 [Cpd 692] |  |  |  | Rat Brain 2AG % VehCntrl (%) @ 1 μM (MGL; compound 1 μM): 284% |
| O=C(c1ccc2c(c1)CCN(S(=O)(=O)C1CCCCC1)C2)N1CC(N2CCN(C(=O)c3nccs3)CC2)C1 [Cpd 906] | 896 |  |  |  |
| O=C(c1ccc(C(F)(F)F)cc1)N1CCc2cc(C(=O)N3CC(N4CCN(C(=O)c5nccs5)CC4)C3)ccc2C1 [Cpd 907, 6-({3-[4-(1,3-Thiazol-2-ylcarbonyl)piperazin-1-yl]azetidin-1-yl}carbonyl)-2-{[4-(trifluoromethyl)phenyl]carbonyl}-1,2,3,4-tetrahydroisoquinoline] | 867 |  |  |  |
| O=C(c1ccc2c(c1)CCN(S(=O)(=O)c1ccccc1)C2)N1CC(N2CCN(C(=O)c3nccs3)CC2)C1 [Cpd 927] | 850 |  |  |  |
| O=C(c1ccc(SCc2cccc(C(F)(F)F)c2)cc1)N1CC(N2CCN(C(=O)c3nccs3)CC2)C1 [Cpd 973] | 806 |  |  |  |
| O=C(c1ccc2c(c1)ncn2-c1ccc(C(F)(F)F)cc1)N1CC(N2CCN(C(=O)c3nccs3)CC2)C1 [Cpd 1064, 5-({3-[4-(1,3-Thiazol-2-ylcarbonyl)piperazin-1-yl]azetidin-1-yl}carbonyl)-1-[4-(trifluoromethyl)phenyl]-1H-benzimidazole] | 570 |  |  |  |
| O=C(c1ccc2nc(-c3cccc(C(F)(F)F)c3)oc2c1)N1CC(N2CCN(C(=O)c3cscn3)CC2)C1 [Cpd 1151, 6-({3-[4-(1,3-Thiazol-4-ylcarbonyl)piperazin-1-yl]azetidin-1-yl}carbonyl)-2-[3-(trifluoromethyl)phenyl]-1,3-benzoxazole] | 482 |  |  |  |
| NC(=O)c1ccc(-n2ccc3cc(C(=O)N4CC(N5CCN(C(=O)c6nccs6)CC5)C4)ccc32)cc1 [Cpd 1171] | 839 |  |  |  |
| O=C(c1ccc2c(c1)ncn2-c1ccc(F)c(F)c1)N1CC(N2CCN(C(=O)c3nccs3)CC2)C1 [Cpd 1186] | 393 |  |  |  |
